Compound	melting point
CSc1[nH]ccc1[N+](=O)[O-]	212 to 213 °C
O=C(CCCCC1SCC2NC(=O)NC21)NCCOCCOCCN1C(=O)C=C(Br)C1=O (stereo not given)	95 to 98 °C
CC1(C)Oc2ccc(-n3c(=O)[nH]c4cccnc43)cc2O1	223 to 224 °C
Cc1cc(C)cc(Sc2cccc([N+](=O)[O-])c2C#N)c1	155 to 156 °C
Cc1ccc(S(=O)(=O)N(CCN(CC(=O)Cl)S(=O)(=O)c2ccc(C)cc2)CCN(CC(=O)Cl)S(=O)(=O)c2ccc(C)cc2)cc1	136 to 137 °C
CCOc1nn(C(=O)NS(=O)(=O)Nc2c(C)cccc2C(=O)CC)c(=O)n1C	134 °C
CC(=O)N1CCc2ccc(SCc3ccccc3)c(N)c2C1	133 to 136 °C
COc1ccc(CN2C(=O)C3(COc4cc(OC)c(C#N)cc43)c3ccccc32)cc1 (stereo not given)	207 to 208 °C
OCC(CO)Oc1cc(-c2ccccc2)on1	117 to 119 °C
Cc1nc2c(OCc3c(Cl)ccc(NC(C)C)c3Cl)cccn2c1Br	133 to 134 °C
N#Cc1c(-c2sc(Cl)c(Cl)c2Cl)[nH]c(C(F)(F)F)c1Br	221 to 224 °C
CCOc1nnc(-c2ccc(C(F)(F)F)cc2)[nH]1	151 to 152 °C
CN(C)C(=O)C(N)=NNc1ccc(Cl)cc1C(=O)c1ccccc1Cl	150 to 151 °C
CCCNC(=O)N(Cc1ccc(Cl)cc1)C1CCCC1	103 to 105 °C
CCCCc1ccc(NC(=O)CBr)c([N+](=O)[O-])c1	56 to 57 °C
COc1ccc(Sc2ccccc2C(C)C)cc1	63 to 65 °C
Nc1nc(C(=O)NCCO)cs1	118 to 120 °C
Cc1cc2c(O)n(CCc3ccc(C(=O)N[C@@H](CCC(=O)O)C(=O)O)cc3)cnc-2n1	291 °C
c1ccc(C(CCN2CC3CCC(CC3)C2)(c2ccccc2)c2nnn[nH]2)cc1	284 to 286 °C
Cc1cc(OCc2ccccc2)c(F)cc1[N+](=O)[O-]	95 °C
Cc1cc2c(cc1Br)C(O)(c1ccccn1)CC(C)(C)CO2 (stereo not given)	147 °C
O=C1CN=C(c2ccccc2Cl)c2ccccc2N1	109 to 111 °C
N#Cc1c(F)cc(OCCOc2ccc3ccccc3c2)cc1F	148 to 149 °C
CC1(C)CC(Nc2nc(Cl)nc(NC3CC(C)(C)NC(C)(C)C3)n2)CC(C)(C)N1	270 °C
CC(C)(C)c1cc(CCC(=O)NN)cc(C(C)(C)C)c1O	153 to 154 °C

Compound	melting point
CCOC(=O)C1=CC2(CCC1S(=O)(=O)Nn1cccc1)OCCO2 (stereo not given)	115 to 117 °C
O=C(NCC1Cc2ccc3c(c2O1)CCC3)OCc1ccccc1 (stereo not given)	99 to 101 °C
NC(=O)CN1C(=O)Cc2cc(Cl)ccc21	226 °C
CC(=O)Cn1nc(-c2sc(N)nc2-c2ccccc2)ccc1=O	216 to 219 °C
CCOC(=O)C1=Cc2ccc(OCc3ccccc3)cc2OCC1	75 to 76 °C
CCCCSC(=S)N1C(CO)Cc2c([nH]c3ccccc23)C1C (stereo not given)	110 to 113 °C
N#Cc1cc(Cn2cncn2)cc(-c2ccc(OS(N)(=O)=O)c(Cl)c2)c1	163 to 164 °C
Cc1cccc2c1C(=O)c1cc(CC(=O)O)ccc1OC2	183 to 185 °C
COc1nc2c(c(OC)n1)C(c1ccc(O)c(OC)c1)C1=C(COC1=O)N2 (stereo not given)	294 to 296 °C
Nc1cccc(Nc2ncc(-c3cccnc3)s2)c1	162 °C
O=C(CCC(=O)N1CCC[C@H]1C(=O)O)[C@H](Cc1ccccc1)OCc1ccccc1	114 to 115 °C
O=C(O)c1ccc(OC(F)F)c(OC2CCCC2)c1	126 to 128 °C
NS(=O)(=O)c1cccc(S(=O)(=O)NC2CCC2)c1	140 to 143 °C
COc1ccc(S(=O)(=O)N2Cc3ccccc3N(C(=O)c3ccc(OC)cc3OC)CC2C(=O)NO)cc1 (stereo not given)	189 to 191 °C
COc1cc(OC)c(/C=C/S(=O)(=O)Cc2ccc(OC)c([N+](=O)[O-])c2)c(OC)c1	186 to 187 °C
CC(C)CC(=O)N[C@H]1CC[C@H](CCN2CCN(c3nccc4c3OCC4)CC2)CC1	187 °C
COc1ccc(CCc2ccncc2NC(=O)c2ccccc2)cc1OC1CCCC1	50 to 51 °C
O=C1NC(=O)C(Nc2ccc(CCNCC(O)COc3ccc(-c4ccccc4)cc3)cc2)S1 (stereo not given)	70 to 71 °C
CC(=O)Nc1cc(CCl)c(I)cn1	173 to 174 °C
CCc1cc(-c2nnc3c4ccccc4c(OCc4ncnn4C)nn23)no1	240 to 242 °C
O=Cc1ccc2c(c1)N(C1CCN(CCc3ccccc3F)CC1)CC2	86 to 87 °C
CN(C)C(=O)C(=O)C1=CC2(CCCC2)c2ccccc21	119 to 121 °C
CC(C)[Si](Oc1ccc2c(c1)CCC2=O)(C(C)C)C(C)C	63 to 63.5 °C
Cc1csc(C(=O)N2CCCC2)c1-n1cccc1	178 °C
COC(=O)c1cccc2oc(SCCN3CCN(CC(=O)Nc4c(C(C)C)cccc4C(C)C)CC3)nc12	173 to 175 °C

Compound	melting point
CN(C)c1ccccc1CC(=N)N1C[C@@H]2C(=O)CCC(c3ccccc3)(c3ccccc3)[C@@H]2C1	188 °C
c1ccc(CSc2cnccc2C2=NOCCO2)cc1	110 to 112 °C
Oc1cccc(-c2cnc3cnc(-c4cccc(O)c4)nc3c2)c1	264 to 265 °C
CCOC(=O)C(C(=O)C=CC(C)Oc1ccc(Oc2ccc(C(F)(F)F)cc2)cc1)C(=O)OCC (stereo not given)	52 to 55 °C
Cc1c(NC(=O)NC(C)(C)C)c(C)c2c(c1C(C)O)OCC2c1ccc(C(C)C)cc1 (stereo not given)	212 to 214 °C
N#Cc1ccc(OCCc2cccc(F)c2)cc1	79 to 81 °C
COc1ccc(S(=O)(=O)Nc2nc(-c3ccccc3)nn2C)cc1OC	279 to 280 °C
Cc1cccc(-c2[nH]c(C(C)C)nc2-c2ccc(F)c(-c3cc[nH]n3)c2)n1	195 to 198 °C
CN(C)CCCn1cc(C2=C(c3c[nH]c4ccccc34)C(=O)N(C)C2=O)c2ccccc21	86 to 90 °C
Nc1nc2ccccc2n1-c1cccc(-c2cscc2CO)c1	106 to 108 °C
COc1cc2cc(C(=O)N3CC(CCl)c4c3cc(N3C(=O)c5ccccc5C3=O)c3ncccc43)[nH]c2c(OC)c1OC (stereo not given)	189 to 191 °C
COC1=CC(OC)(OC)C(I)C=C1C(=O)OCC(=O)c1ccccc1 (stereo not given)	146 °C
COc1cccc2c1Sc1cc(Cl)ccc1C2	72 to 74 °C
CCC(=O)C(CCCCCCOc1ccc2c(c1)OCO2)C(=O)CC	45 to 46 °C
N#Cc1c(N2CCCCC2)cc(-c2ccc(F)cc2)c2c1Cc1ccccc1-2	130 to 132 °C
Cc1cc(C#N)cc(C(=O)Nc2ccn(C)n2)n1	201 °C
COC(=O)c1nc(-c2ccc(Cl)c(S(C)=O)c2F)nc(N)c1Cl (stereo not given)	256 to 258 °C
Cc1cc(Cl)ccc1Oc1ccc(C(=O)C=CC(=O)O)cc1	138 to 139 °C
CCOC(=O)c1ccc(C2=NOC(c3cc(Cl)cc(Cl)c3)(C(F)(F)F)C2)cc1OC (stereo not given)	142 to 144 °C
COC(=O)c1ccc(SC)c(OC2CCCC2)c1	53 to 55 °C
NC(=O)C1(c2ccc(F)cc2)OC(=O)c2ccccc21 (stereo not given)	170 to 173 °C
Cc1csc2ccc3[nH]c4c(c3c12)CN(CCCN(C)C)CC4	184 °C
O=C1c2cccc([N+](=O)[O-])c2C2CC3(CCN12)OCCO3 (stereo not given)	206 °C
CC(C)C(=O)NCCNCC(O)COc1ccc(O)c(CO)c1 (stereo not given)	148 to 149 °C
O=C1c2cccc3cccc(c23)C(O)N1CCN1CCN(c2ccccn2)CC1 (stereo not given)	174 to 175 °C

Compound	melting point
NC(=O)N1CCC(c2nn(-c3ccccc3)c3cc(Cl)ccc23)CC1	148 to 150 °C
NC(=O)CNC(=O)c1ccnc(-c2cccc3sc(Cc4cccc(C(F)(F)F)c4)cc23)c1	49 to 50 °C
Cc1c(Nc2ccc(Cl)cc2C(=O)O)cccc1C(F)(F)F	220 to 222 °C
O=c1c(-c2ccccc2O)coc2cc(O)ccc12	196 to 198 °C
CN(CCc1ccccc1)CCc1ccc(Nc2ncc3c(n2)-c2ccccc2C(c2cccc(Br)c2)C3)cc1 (stereo not given)	80 to 82 °C
Cc1cc(Cl)c(O)cc1N	144 °C
CNC(=O)c1ccc(N2CCN(Cc3cc4c(c(OC)c3)OC(C)C(=O)N4)CC2)cc1 (stereo not given)	256 °C
CC(=O)OC1CSC(Oc2ccc(-c3ccncc3)nc2)C(OC(C)=O)C1OC(C)=O (stereo not given)	189 °C
O=c1nc(-c2cccc(SCc3ccccc3)n2)sc2ccccc12	227 to 228 °C
CC(C)C(NS(=O)(=O)c1ccc(-c2cccc(CNC(=O)c3nc4ccccc4c(=O)[nH]3)c2)cc1)C(=O)O (stereo not given)	141 to 143 °C
O=C1c2ccc([N+](=O)[O-])c3c([N+](=O)[O-])ccc(c23)C(=O)N1O	290 to 291 °C
COCOc1ccccc1-c1cc(-c2cccc(CN=[N+]=[N-])c2)c(C#N)c(NC(=O)c2cccs2)n1	139 to 140 °C
CCCc1c(OCCCCCOc2ccccc2CCC(=O)O)ccc2c1OCC2=O	101 to 102 °C
CNc1nc(Cl)ncc1[N+](=O)[O-]	90 to 91 °C
CC1=C(C#N)C(c2cccc3nnc(-c4ccccc4)cc23)C(C(=O)OC(C)C)=C(C)N1 (stereo not given)	200 to 202 °C
COC1CC(C(=O)O)Cc2onc(-c3ccc(Cl)cc3)c21 (stereo not given)	190 to 191 °C
CCOc1noc(C(=O)OCc2ccccc2)c1CC(NC(=O)OC(C)(C)C)C(=O)OCc1ccccc1 (racemic)	142 to 144 °C
CCN(CC)c1ccc(/C=C/C(=O)CC(=O)/C=C/c2ccc(OC)c(O)c2)c(O)c1	101 to 108 °C
COc1nc(=O)[nH]cc1C	196 to 199 °C
CCOC(=O)c1c(S(N)(=O)=O)c2ccccc2n1CC	148 to 149 °C
Nc1nn(-c2ccccc2)cc1C=O	129 to 130 °C
COc1cc2c(cc1OC)C1(CCC2=O)CCC(=O)N(C)C1=O (stereo not given)	168 to 170 °C
CC1(C)CN(c2ccncc2)c2ccc(S(=O)(=O)c3ccccc3)cc2O1	113 to 120 °C
CCCCOc1nc(N)c2[nH]c(=O)n(CCCCN(CCN3CCCC3)S(=O)(=O)c3cccc(CC(=O)O)c3)c2n1	192 to 193 °C
CNc1nc(-c2cccc(-c3cncc(-c4ccccc4)c3)c2)c2cc(OC)c(OC)cc2n1	200 to 202 °C

— a melting point compilation (Tetko et al.; mined from patent text by program, amines drawn as free bases though some values may be those of a salt)
